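Assay format: 96-well plates, 48-hour exposure. TGI: total growth inhibition.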
Tests used:
Experiment in all cases: NCI tumour cell line growth inhibition, 48 h
P388 leukemia = test system: P388 leukemia
SNB-78 CNS = test system: SNB-78 CNS
XF 498 CNS = test system: XF 498 CNS
SN12K1 renal = test system: SN12K1 renal
DLD-1 colon = test system: DLD-1 colon
HOP-18 NSCLC = test system: HOP-18 NSCLC
DMS 273 small cell lung = test system: DMS 273 small cell lung
M19-MEL melanoma = test system: M19-MEL melanoma
P388/ADR leukemia = test system: P388/ADR leukemia
DMS 114 small cell lung = test system: DMS 114 small cell lung
LXFL 529 NSCLC = test system: LXFL 529 NSCLC
RXF-631 renal = test system: RXF-631 renal

SMILES | TGI (P388 leukemia) | TGI (SNB-78 CNS) | TGI (XF 498 CNS) | TGI (SN12K1 renal) | TGI (DLD-1 colon) | TGI (HOP-18 NSCLC) | TGI (DMS 273 small cell lung) | TGI (M19-MEL melanoma) | TGI (P388/ADR leukemia) | TGI (DMS 114 small cell lung) | TGI (LXFL 529 NSCLC) | TGI (RXF-631 renal)
O=C1C=C2SC3C[C@@]24CC1[N+]1=c2c4c(c(O)c4c2=C(C=N4)CC1)N3 | 4.15 µM | 5.88 µM | 3.34 µM | 3.76 µM | 5.12 µM | 18.9 µM | 4.12 µM | 3.44 µM | 23.1 µM | 2.85 µM | – | –
CCn1c(SC(C)C(=O)c2c(C)n(C)n(-c3ccccc3)c2=O)nc2ccccc2c1=O (stereo not given) | – | > 100 µM | – | – | > 100 µM | – | > 100 µM | > 100 µM | – | > 100 µM | > 100 µM | –
C=CCc1cc(-c2cc(CC=C)c(O)c(CN(CC)CC)c2)cc(CN(CC)CC)c1O | – | > 100 µM | – | – | > 100 µM | > 100 µM | 82.5 µM | 43.8 µM | – | > 100 µM | > 100 µM | 44.5 µM
Cc1ccc(C(=O)N(Cc2ccccc2)Cc2ccccc2)cc1N=NN(C)C | – | > 100 µM | – | – | > 100 µM | – | > 100 µM | – | – | – | 72.4 µM | –
CCCC(C)n1c(C)nc2c1C(=O)c1ccccc1C2=O (stereo not given) | – | > 100 µM | 50.1 µM | – | > 100 µM | – | 30.8 µM | 29.1 µM | – | – | > 100 µM | –
COc1cc(CNc2cnc3cc(N)ccc3n2)cc(OC)c1OC | – | – | > 100 µM | – | > 100 µM | > 100 µM | 2.43 µM | > 100 µM | – | 61 µM | > 100 µM | –
Cc1nc2c(o1)C(=Nc1ccccc1)c1ccccc1C2=O | – | 37.6 µM | 12.5 µM | – | 32 µM | 18 µM | 23.2 µM | 3.65 µM | – | 8.57 µM | 24.1 µM | –
O=C1c2ccccc2C(=O)c2c(O)c(NCCCNCCO)cc(O)c21 | – | 39.8 µM | 32.7 µM | – | 19.8 µM | 17.5 µM | 22.7 µM | 27.4 µM | – | 26.2 µM | 29.8 µM | 25 µM
CC1(C)O[C@@H](CCl)C[C@H](C#N)O1 | – | > 100 µM | > 100 µM | – | > 100 µM | > 100 µM | > 100 µM | > 100 µM | – | > 100 µM | – | –
O=C1C=CC(=C(c2ccc(O)cc2)c2ccc(O)cc2)C=C1 | – | 17.4 µM | 24.4 µM | – | 23.4 µM | 30.3 µM | 19.9 µM | – | – | 7.54 µM | 10.8 µM | 29.6 µM
O=S(OC12CC3CC(CC(C3)C1)C2)c1cc(Cl)cc(Cl)c1OCc1ccccc1 (stereo not given) | – | > 100 µM | > 100 µM | – | > 100 µM | – | – | > 100 µM | – | > 100 µM | > 100 µM | > 100 µM

From PubChem BioAssay (NCI)
